Consider three compounds from ChEMBL document CHEMBL1135845, “N-(arylacetyl)-biphenylalanines as potent VLA-4 antagonists” (Bioorg Med Chem Lett, 2002).

Tested on in one series: not listed separately
Put plainly: Bioavailability in rat (Sprague-Dawley) (dose 1 mg/kg i.v. and 2 mg/kg p.o.). Format: ADME, organism-based. As to conditions: in vivo, po.
In turn, `COc1ccccc1-c1ccc(C[C@H](NC(=O)C2(c3cnccc3C)CCCC2)C(=O)O)cc1` returned a bioavailability of 1%.
The compound `COc1ccccc1-c1ccc(C[C@H](NC(=O)C2(c3ccncc3)CCCC2)C(=O)O)cc1` yielded a bioavailability of 17%.
On the same count and under the same terms, under `COc1ccccc1-c1ccc(C[C@H](NC(=O)C2(c3cccnc3)CCCC2)C(=O)O)cc1` stands 35%.

Tested on in the next series: not listed separately
Put plainly: Inhibition of VLA-4 binding to radiolabeled vascular cell adhesion molecule-1 (VCAM-1) Ig fusion protein in human Jurkat cells. In kind it is cell-based.
Settings: not given
Consider `COc1ccccc1-c1ccc(C[C@H](NC(=O)C2(c3cnccc3C)CCCC2)C(=O)O)cc1`, for which the IC50 is 1.2 nM. This lies in the single-digit nanomolar range.
Same read-out and setting: then `COc1ccccc1-c1ccc(C[C@H](NC(=O)C2(c3ccncc3)CCCC2)C(=O)O)cc1`, with 0.7 nM.
Still for that read-out and setting: under `COc1ccccc1-c1ccc(C[C@H](NC(=O)C2(c3cccnc3)CCCC2)C(=O)O)cc1` stands 0.5 nM.

Tested on in a further series: not listed separately
The series can be described thus: Plasma half-life was determined in Sprague-Dawley rats after 0-8 h administration of the compound. As to conditions: rat. In kind it is ADME, organism-based.
Turning to `COc1ccccc1-c1ccc(C[C@H](NC(=O)C2(c3cnccc3C)CCCC2)C(=O)O)cc1`, the half-life is 0.2 h.
On to `COc1ccccc1-c1ccc(C[C@H](NC(=O)C2(c3ccncc3)CCCC2)C(=O)O)cc1`, for which the half-life is 2.5 h. This half-life is about 12-fold higher than that of the compound before.
The same measure, in the same setting: then `COc1ccccc1-c1ccc(C[C@H](NC(=O)C2(c3cccnc3)CCCC2)C(=O)O)cc1`, with 1.1 h.

The target of another series is T1, Integrin alpha-4/beta-7 (Homo sapiens, UniProt P13612+P26010).
T1 sequence (P13612 whole entry): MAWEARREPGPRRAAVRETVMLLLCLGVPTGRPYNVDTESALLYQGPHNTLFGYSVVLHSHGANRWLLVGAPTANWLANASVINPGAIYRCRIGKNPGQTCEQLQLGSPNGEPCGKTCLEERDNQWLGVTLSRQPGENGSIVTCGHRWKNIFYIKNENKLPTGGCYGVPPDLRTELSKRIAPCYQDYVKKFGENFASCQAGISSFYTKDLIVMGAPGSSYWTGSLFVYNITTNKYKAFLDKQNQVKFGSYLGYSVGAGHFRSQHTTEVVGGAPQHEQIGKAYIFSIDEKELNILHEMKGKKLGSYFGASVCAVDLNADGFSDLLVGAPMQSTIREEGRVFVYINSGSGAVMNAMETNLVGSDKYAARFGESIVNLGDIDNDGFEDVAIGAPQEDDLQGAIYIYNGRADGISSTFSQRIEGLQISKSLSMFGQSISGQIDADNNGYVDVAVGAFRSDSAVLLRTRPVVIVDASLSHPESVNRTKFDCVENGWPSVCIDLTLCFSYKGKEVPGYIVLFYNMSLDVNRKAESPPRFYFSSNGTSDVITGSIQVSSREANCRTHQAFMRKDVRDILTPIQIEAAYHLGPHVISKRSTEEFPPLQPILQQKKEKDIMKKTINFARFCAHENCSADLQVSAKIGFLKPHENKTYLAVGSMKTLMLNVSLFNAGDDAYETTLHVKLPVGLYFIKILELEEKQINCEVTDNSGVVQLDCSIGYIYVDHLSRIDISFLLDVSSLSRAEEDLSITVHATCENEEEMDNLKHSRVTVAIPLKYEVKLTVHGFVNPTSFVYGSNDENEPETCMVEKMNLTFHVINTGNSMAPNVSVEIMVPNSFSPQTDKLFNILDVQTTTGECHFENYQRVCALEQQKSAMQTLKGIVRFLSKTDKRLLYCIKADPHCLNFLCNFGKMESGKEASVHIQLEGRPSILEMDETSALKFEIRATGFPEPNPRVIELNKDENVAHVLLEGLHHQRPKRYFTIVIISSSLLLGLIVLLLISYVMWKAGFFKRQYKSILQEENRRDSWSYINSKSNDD
T1 sequence (P26010 whole entry): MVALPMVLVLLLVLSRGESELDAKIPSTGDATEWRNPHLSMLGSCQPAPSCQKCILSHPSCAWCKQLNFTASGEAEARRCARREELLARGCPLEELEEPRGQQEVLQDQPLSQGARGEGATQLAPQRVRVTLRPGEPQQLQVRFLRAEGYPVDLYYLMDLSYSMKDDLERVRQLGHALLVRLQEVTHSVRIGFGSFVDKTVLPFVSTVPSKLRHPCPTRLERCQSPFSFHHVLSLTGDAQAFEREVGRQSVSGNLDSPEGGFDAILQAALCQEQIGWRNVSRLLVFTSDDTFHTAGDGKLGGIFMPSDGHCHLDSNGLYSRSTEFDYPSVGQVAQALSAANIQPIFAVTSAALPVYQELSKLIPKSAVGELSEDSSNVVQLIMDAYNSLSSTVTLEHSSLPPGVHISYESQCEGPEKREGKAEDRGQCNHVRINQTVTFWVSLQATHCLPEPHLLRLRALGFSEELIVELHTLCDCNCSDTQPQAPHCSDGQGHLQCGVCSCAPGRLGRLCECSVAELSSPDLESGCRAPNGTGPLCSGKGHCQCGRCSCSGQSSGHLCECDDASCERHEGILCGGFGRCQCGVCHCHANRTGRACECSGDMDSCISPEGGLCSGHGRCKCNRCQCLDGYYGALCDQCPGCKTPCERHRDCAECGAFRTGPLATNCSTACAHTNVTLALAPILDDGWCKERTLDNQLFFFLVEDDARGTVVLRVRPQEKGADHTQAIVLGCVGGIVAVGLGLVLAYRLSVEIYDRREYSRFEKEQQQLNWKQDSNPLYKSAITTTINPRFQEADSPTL
The series can be described thus: Inhibition of alpha4-beta7 integrin binding to radiolabeled vascular cell adhesion molecule-1 (VCAM-1) Ig fusion protein in human Jurkat cells. Format: cell-based.
Settings: not given
Take `COc1ccccc1-c1ccc(C[C@H](NC(=O)C2(c3cnccc3C)CCCC2)C(=O)O)cc1`: the IC50 amounted to 22 nM.
The same measure, in the same setting: under `COc1ccccc1-c1ccc(C[C@H](NC(=O)C2(c3ccncc3)CCCC2)C(=O)O)cc1` stands 49 nM; under `COc1ccccc1-c1ccc(C[C@H](NC(=O)C2(c3cccnc3)CCCC2)C(=O)O)cc1`, 9.9 nM.

Tested on in a further series: not listed separately
Put plainly: Plasma clearance rate in Sprague-Dawley rats. Format: ADME, organism-based. As to conditions: rat, read-out: Clp.
`COc1ccccc1-c1ccc(C[C@H](NC(=O)C2(c3cnccc3C)CCCC2)C(=O)O)cc1`: the clearance is over 100 mL/min/kg.
The same measure, in the same setting: under `COc1ccccc1-c1ccc(C[C@H](NC(=O)C2(c3ccncc3)CCCC2)C(=O)O)cc1` stands over 100 mL/min/kg; under `COc1ccccc1-c1ccc(C[C@H](NC(=O)C2(c3cccnc3)CCCC2)C(=O)O)cc1`, 24 mL/min/kg.

As a reminder, the bioavailability is dose-corrected exposure relative to a reference, in per cent. Lower therefore signals little systemic uptake. Usually IC50 stands for the concentration at which inhibition is half-maximal. Low readings indicate greater potency in that assay, high ones weaker potency in that assay. Broadly, the half-life is the time in which the quantity being followed falls by half. A higher half-life goes with slow decline.
